# Reference: ChEMBL document CHEMBL3991601, “The target landscape of clinical kinase drugs” (Science, 2017)
# Activity calls are given as the source filed them.
# Experiments:
# [1] = target: T1, Phosphatidylinositol 5-phosphate 4-kinase type-2 alpha (Homo sapiens, UniProt P48426)
# T1 sequence (P48426 whole entry): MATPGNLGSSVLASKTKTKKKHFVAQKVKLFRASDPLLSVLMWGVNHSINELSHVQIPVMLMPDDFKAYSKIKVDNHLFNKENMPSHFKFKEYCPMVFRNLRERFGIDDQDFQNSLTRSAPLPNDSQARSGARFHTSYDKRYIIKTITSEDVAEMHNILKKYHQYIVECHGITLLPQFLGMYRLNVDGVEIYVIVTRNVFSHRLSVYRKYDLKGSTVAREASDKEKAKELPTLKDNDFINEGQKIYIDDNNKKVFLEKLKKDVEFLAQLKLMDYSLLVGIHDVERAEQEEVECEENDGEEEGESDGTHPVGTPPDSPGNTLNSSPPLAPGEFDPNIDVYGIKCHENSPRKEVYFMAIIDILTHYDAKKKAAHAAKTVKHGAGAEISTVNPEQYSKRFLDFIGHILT
# [2] = target: Serine/threonine-protein kinase pim-2 (Homo sapiens, UniProt Q9P1W9)
# [3] = target: High affinity nerve growth factor receptor (Homo sapiens, UniProt P04629)
# [4] = target: Dual specificity protein kinase CLK4 (Homo sapiens, UniProt Q9HAZ1)
# UMP-CMP kinase = target: T2, UMP-CMP kinase (Homo sapiens, UniProt P30085)
# T2 sequence (P30085 whole entry): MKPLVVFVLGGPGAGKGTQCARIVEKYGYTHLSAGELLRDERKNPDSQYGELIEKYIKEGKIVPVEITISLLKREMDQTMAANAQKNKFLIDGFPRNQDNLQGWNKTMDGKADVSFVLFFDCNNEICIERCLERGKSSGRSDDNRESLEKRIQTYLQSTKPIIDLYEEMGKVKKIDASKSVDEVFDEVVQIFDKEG
# [5] = target: Tyrosine-protein kinase Fgr (Homo sapiens, UniProt P09769)
# [6] = target: Cyclin-dependent kinase 17 (Homo sapiens, UniProt Q00537)
# [7] = target: Dual specificity tyrosine-phosphorylation-regulated kinase 1B (Homo sapiens, UniProt Q9Y463)
# [8] = target: Eukaryotic peptide chain release factor GTP-binding subunit ERF3B (Homo sapiens, UniProt Q8IYD1)
# [9] = target: Serine/threonine-protein kinase 38 (Homo sapiens, UniProt Q15208)
# [10] = target: Serine/threonine-protein kinase 24 (Homo sapiens, UniProt Q9Y6E0)
# [11] = target: MAP kinase-activated protein kinase 3 (Homo sapiens, UniProt Q16644)
# Myosin-10 = Myosin-10 (Homo sapiens, UniProt P35580)
# [12] = target: T3, Dual specificity mitogen-activated protein kinase kinase 4 (Homo sapiens, UniProt P45985)
# T3 sequence (P45985 whole entry): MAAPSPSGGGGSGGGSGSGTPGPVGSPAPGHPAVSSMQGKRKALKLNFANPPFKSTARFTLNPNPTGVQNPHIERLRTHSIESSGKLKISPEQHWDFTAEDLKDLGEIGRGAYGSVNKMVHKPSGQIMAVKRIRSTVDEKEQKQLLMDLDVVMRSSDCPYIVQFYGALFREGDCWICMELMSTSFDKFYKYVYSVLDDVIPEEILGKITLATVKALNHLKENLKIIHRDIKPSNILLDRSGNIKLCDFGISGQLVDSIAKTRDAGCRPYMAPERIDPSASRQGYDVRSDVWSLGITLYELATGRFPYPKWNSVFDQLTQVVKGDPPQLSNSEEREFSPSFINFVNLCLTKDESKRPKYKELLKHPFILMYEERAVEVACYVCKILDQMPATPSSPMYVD
# [13] = target: G protein-coupled receptor kinase 6 (Homo sapiens, UniProt P43250)
# Ephrin type-A receptor 1 = target: T4, Ephrin type-A receptor 1 (Homo sapiens, UniProt P21709)
# T4 sequence (P21709 whole entry): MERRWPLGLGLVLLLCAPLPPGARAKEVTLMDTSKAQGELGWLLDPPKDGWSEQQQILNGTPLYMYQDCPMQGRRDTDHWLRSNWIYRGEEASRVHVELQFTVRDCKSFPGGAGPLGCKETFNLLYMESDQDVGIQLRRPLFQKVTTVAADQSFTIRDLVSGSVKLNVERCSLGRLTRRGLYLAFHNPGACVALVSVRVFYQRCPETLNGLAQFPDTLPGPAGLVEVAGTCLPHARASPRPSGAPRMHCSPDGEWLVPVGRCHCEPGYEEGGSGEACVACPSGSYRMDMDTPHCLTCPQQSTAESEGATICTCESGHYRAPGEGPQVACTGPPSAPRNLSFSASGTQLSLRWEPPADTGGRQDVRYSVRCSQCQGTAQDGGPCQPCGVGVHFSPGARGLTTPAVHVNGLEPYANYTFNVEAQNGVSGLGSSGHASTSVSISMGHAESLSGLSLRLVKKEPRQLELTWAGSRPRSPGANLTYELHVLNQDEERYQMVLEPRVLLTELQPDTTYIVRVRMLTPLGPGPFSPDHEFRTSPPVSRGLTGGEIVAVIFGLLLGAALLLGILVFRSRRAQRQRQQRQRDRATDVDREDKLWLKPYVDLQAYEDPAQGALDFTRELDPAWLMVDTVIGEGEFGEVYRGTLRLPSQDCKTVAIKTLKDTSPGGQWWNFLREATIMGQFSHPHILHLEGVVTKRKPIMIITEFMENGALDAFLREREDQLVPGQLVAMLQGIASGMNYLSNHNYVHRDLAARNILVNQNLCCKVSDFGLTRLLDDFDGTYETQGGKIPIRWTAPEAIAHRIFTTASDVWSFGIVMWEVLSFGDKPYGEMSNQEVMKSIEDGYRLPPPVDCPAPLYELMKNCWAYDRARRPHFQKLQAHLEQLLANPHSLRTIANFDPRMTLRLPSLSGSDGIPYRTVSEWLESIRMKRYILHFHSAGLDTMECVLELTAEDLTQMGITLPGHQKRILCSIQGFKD
# Further: in the data inactive means no Kd found up to 30 µM.
# Sequence of Tyrosine-protein kinase Fgr (P09769 whole entry): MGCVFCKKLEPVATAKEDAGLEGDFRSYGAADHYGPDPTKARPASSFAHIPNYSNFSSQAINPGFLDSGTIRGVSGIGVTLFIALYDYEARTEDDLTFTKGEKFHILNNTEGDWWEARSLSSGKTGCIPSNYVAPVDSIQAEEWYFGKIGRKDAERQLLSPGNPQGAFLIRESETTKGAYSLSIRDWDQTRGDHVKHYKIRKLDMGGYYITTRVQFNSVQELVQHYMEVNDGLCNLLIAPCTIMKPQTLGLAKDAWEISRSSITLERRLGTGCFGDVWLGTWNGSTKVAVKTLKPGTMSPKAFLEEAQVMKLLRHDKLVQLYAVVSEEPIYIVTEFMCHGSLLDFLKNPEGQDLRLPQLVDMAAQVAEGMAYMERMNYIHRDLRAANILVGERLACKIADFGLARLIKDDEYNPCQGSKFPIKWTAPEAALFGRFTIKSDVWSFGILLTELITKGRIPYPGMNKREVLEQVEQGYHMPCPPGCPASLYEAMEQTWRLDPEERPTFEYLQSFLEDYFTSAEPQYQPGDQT
# Sequence of Eukaryotic peptide chain release factor GTP-binding subunit ERF3B (Q8IYD1 whole entry): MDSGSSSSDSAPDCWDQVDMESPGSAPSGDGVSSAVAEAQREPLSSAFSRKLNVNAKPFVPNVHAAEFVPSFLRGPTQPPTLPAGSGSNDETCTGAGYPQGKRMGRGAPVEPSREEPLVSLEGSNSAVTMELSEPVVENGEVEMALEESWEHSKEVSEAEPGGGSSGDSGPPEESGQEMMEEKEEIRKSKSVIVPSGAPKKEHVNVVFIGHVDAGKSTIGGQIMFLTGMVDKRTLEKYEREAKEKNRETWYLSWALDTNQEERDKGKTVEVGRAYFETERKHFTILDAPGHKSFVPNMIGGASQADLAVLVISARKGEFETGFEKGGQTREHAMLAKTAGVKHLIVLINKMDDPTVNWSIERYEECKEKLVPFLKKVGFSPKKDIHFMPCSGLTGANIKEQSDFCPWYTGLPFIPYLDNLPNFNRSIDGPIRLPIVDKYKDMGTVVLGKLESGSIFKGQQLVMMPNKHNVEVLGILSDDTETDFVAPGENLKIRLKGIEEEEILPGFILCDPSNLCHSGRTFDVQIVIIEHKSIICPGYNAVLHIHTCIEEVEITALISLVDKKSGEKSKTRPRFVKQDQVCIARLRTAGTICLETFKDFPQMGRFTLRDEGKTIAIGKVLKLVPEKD
# Sequence of Serine/threonine-protein kinase 24 (Q9Y6E0 whole entry): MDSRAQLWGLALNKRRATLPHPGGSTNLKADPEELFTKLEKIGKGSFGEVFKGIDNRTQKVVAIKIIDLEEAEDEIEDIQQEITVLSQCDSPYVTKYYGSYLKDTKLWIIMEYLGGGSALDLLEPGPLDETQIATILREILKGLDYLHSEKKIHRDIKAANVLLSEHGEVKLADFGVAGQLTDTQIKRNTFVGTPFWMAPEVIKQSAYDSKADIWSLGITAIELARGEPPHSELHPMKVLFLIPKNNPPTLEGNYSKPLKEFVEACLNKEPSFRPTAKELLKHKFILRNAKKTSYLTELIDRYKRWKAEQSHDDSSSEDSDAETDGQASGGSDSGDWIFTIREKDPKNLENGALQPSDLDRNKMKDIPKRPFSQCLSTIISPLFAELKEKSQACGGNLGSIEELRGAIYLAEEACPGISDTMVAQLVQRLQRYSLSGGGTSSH
# Sequence of High affinity nerve growth factor receptor (P04629 whole entry): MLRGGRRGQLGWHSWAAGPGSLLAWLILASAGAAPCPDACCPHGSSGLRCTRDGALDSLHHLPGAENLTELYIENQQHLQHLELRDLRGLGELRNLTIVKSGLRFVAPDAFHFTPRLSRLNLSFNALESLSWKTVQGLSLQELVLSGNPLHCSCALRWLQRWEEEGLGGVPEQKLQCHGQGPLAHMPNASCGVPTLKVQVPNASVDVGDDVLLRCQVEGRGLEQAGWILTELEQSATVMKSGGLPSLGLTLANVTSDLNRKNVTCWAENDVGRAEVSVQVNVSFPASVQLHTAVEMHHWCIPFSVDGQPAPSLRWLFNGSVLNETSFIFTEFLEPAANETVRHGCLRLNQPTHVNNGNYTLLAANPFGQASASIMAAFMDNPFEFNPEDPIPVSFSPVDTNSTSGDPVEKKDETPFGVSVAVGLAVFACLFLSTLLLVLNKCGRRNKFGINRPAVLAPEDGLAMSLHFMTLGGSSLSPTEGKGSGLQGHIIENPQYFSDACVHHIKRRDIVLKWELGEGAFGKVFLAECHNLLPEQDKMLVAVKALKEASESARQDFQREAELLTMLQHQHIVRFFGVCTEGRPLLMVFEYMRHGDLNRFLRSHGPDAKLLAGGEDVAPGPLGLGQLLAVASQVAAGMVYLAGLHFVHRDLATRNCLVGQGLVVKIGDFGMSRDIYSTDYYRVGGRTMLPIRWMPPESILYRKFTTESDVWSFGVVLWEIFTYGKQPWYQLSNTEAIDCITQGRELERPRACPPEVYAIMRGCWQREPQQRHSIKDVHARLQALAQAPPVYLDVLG
# Sequence of Cyclin-dependent kinase 17 (Q00537 whole entry): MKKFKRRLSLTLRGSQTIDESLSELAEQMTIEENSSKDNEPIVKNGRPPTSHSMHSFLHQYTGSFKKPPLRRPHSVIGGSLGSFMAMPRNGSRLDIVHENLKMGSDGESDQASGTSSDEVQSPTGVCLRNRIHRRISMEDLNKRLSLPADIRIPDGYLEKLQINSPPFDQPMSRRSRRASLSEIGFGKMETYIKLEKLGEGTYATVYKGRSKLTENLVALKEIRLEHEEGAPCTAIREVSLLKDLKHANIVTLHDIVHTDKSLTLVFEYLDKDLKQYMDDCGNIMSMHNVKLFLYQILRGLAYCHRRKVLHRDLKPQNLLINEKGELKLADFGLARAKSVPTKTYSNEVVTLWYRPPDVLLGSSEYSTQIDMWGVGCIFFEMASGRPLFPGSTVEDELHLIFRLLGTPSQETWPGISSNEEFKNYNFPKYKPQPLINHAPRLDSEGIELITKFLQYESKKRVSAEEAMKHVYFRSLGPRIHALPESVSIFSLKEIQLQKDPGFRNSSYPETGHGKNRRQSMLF
# Sequence of Dual specificity tyrosine-phosphorylation-regulated kinase 1B (Q9Y463 whole entry): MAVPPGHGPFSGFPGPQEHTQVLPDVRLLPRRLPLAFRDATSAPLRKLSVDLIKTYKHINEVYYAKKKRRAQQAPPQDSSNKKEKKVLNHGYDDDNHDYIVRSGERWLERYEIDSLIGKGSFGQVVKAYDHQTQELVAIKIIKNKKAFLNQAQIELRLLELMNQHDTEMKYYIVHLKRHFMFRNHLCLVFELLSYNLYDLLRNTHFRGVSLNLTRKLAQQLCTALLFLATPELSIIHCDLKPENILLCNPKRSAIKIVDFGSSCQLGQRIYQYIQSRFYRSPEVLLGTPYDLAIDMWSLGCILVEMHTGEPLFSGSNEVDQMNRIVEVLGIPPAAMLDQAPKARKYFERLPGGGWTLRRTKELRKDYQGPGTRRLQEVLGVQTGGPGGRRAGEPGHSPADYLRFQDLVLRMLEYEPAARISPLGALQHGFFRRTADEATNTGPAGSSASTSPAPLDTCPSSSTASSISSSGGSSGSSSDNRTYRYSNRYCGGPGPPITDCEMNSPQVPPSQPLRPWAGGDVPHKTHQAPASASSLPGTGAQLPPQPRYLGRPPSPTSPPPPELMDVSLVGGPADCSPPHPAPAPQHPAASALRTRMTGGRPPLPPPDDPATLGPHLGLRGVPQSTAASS
# Sequence of MAP kinase-activated protein kinase 3 (Q16644 whole entry): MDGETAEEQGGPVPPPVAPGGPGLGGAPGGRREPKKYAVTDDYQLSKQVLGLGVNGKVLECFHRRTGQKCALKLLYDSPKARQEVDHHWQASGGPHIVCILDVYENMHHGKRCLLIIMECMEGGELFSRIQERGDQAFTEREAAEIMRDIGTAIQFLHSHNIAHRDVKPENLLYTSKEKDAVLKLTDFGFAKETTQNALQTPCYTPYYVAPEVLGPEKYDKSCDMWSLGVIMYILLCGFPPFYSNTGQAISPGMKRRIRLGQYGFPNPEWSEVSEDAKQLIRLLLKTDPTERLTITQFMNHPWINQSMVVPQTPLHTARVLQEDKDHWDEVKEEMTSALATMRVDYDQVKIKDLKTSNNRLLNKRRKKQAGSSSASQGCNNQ
# Sequence of Dual specificity protein kinase CLK4 (Q9HAZ1 whole entry): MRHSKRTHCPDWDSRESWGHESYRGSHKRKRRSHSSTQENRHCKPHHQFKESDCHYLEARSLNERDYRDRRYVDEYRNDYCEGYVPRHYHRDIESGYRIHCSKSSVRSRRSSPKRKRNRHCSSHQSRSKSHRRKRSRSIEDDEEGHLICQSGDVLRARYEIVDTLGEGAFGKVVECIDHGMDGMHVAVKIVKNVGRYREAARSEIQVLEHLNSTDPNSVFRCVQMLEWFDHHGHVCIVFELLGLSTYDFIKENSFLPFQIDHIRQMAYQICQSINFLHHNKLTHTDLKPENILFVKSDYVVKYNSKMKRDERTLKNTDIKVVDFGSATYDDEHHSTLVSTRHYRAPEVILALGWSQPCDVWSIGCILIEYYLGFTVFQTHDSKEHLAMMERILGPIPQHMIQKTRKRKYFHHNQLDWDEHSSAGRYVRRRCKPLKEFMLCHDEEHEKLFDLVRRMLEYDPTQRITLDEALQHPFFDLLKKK
# Sequence of Serine/threonine-protein kinase pim-2 (Q9P1W9 whole entry): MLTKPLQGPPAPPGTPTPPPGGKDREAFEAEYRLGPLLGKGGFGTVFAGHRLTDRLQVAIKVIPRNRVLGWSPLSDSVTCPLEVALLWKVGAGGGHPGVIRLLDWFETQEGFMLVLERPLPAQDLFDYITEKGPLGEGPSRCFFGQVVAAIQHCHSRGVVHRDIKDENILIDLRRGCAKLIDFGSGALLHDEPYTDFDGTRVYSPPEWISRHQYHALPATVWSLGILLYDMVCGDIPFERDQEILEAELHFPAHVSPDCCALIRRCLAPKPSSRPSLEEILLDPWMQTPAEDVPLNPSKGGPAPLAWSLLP
Kd [1],Kd [2],Kd [3],Kd [4],Kd (UMP-CMP kinase),Kd [5],Kd [6],Kd [7],Kd [8],Kd [9],Kd [10],Kd [11],Kd (Myosin-10),Kd [12],Kd [13],Kd (Ephrin type-A receptor 1),SMILES
> 30 µM (inactive),> 30 µM (inactive),> 30 µM (inactive),> 30 µM (inactive),> 30 µM (inactive),> 30 µM (inactive),> 30 µM (inactive),> 30 µM (inactive),> 30 µM (inactive),> 30 µM (inactive),> 30 µM (inactive),> 30 µM (inactive),> 30 µM (inactive),> 30 µM (inactive),,,O=C(O)[C@]1(Cc2cccc(Nc3nccs3)n2)CC[C@@H](Oc2cccc(Cl)c2F)CC1 [MK-5108]
> 30 µM (inactive),> 30 µM (inactive),> 30 µM (inactive),> 30 µM (inactive),> 30 µM (inactive),> 30 µM (inactive),> 30 µM (inactive),> 30 µM (inactive),> 30 µM (inactive),,> 30 µM (inactive),> 30 µM (inactive),> 30 µM (inactive),> 30 µM (inactive),> 30 µM (inactive),> 30 µM (inactive),CC(=O)Nc1cccc(-n2c(=O)n(C3CC3)c(=O)c3c(Nc4ccc(I)cc4F)n(C)c(=O)c(C)c32)c1 [TRAMETINIB]
